Assay results as given in PubChem BioAssay (NCI).
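Cells were grown in 96-well plates and exposed to each compound for 48 hours at five concentrations; endpoints were interpolated linearly between bracketing concentrations, or set to the highest concentration if not reached. Definition used: TGI = concentration required for complete inhibition of growth.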

Test system: ACHN renal
Experiment: NCI anticancer screen, dose series, 48 h

Compound | TGI
Cc1ccc(S(=O)(=O)C(C#N)c2nc3ccccc3nc2-n2ccnc2)cc1 (configuration not stated) | > 100 µM
C=C1CN2CC(=C)CN(C1)CS(=O)(=O)N1CC(=C)CN(CC(=C)C1)S(=O)(=O)N1CC(=C)CN(CC(=C)C1)S(=O)(=O)C2 | > 100 µM
C=C(Cl)C(C)(Cl)CCC(Br)C(C)(C)Cl (configuration not stated) | 31.8 µM
COC(=O)C1CCCN1C(=O)C(Cc1cn(S(=O)(=O)c2ccc(C)cc2)cn1)NC(=O)OC(C)(C)C (configuration not stated) | > 100 µM
Nc1ccc(S2(c3ccc(N)cc3)C=C(c3ccccc3)C(c3ccccc3)=C2)cc1 | > 92.5 µM
O=C1C(=Cc2ccccc2O)N=C(c2ccccc2)N1n1c(-c2ccccc2)nc2ccccc2c1=O | 89.3 µM
CC(=O)O[C@]12CCCCCC1C1(O)C(O)CCCC[C@H]12 (some centres not stated) | > 100 µM
COC(=O)C1=C(C)NC(C)=C(C(=O)OC)C1c1nc2sccn2c1[N+](=O)[O-] | > 100 µM
O=c1c(C(c2ccc(Cl)cc2)c2c(O)c3ccccc3n(-c3ccccc3)c2=O)c(O)c2ccccc2n1-c1ccccc1 | 98.5 µM
CCNC(=O)Nc1cccc(NC(=O)NCC)n1 | > 100 µM

Test system: SW-620 colon
Experiment: NCI anticancer screen, dose series, 48 h

Compound | TGI
COc1ccc(C2OC(c3ccncc3)=NN2C)cc1OC (configuration not stated) | > 100 µM
COc1c(C(C)C)cc2c3c1OC(=O)[C@@]31CCCC(C)(C)C1CC2 (some centres not stated) | > 100 µM
COc1ccc(N2C(=O)CSC2c2c[nH]c3ccccc23)cc1 (configuration not stated) | > 100 µM
COC1C=COC2(C)Oc3c(C)c(O)c4c(O)c(c(C5SCCS5)c(O)c4c3C2=O)NC(=O)C(C)=C/C=C\C(C)C2OC(C)(C)OC(C2C)C(C)C(OC(C)=O)C1C (configuration not stated) | > 100 µM
OCc1ccc(C2CC(c3ccco3)=NN2c2ccccc2)o1 (configuration not stated) | > 100 µM
CCCCN=C(c1ccccc1)N1CCOCC1 | > 100 µM
CSc1ncnc2c1ncn2CCC#N | > 100 µM
CCOC(=O)c1ccc(C)c(N=NN(C)C)c1 | > 100 µM
CC(C)CC(O)P(=O)(O)O (configuration not stated) | > 100 µM
CC1CCCC(CC(=O)O)(CC(=O)O)C1 (configuration not stated) | > 100 µM
COc1cc2c3c(c1OC)C1(C=CC(=O)C=C1)C[C@H]3N(C)CC2 | > 100 µM
CC(C)(Cl)C(Br)CCC(=CCCl)CBr (mixture of isomers) | 4.43 µM
O=NN(CCCl)C(=O)NC1CCC(O)CC1 (configuration not stated) | > 100 µM
Nc1[nH]nc2nc3ccc(C(F)(F)F)cc3nc12 | 33.4 µM
CCC(=O)ONC(=O)Cn1ccc([N+](=O)[O-])n1 | > 100 µM
Cc1ccc(O)c(-c2cscn2)c1 | > 100 µM
O=C(CN(c1ccccc1)c1ccccc1)n1nnc2ccccc21 | > 100 µM
CSc1sc2ccccc2[s+]1 | > 100 µM
COc1cc(OC)c(C2c3cc4c(cc3OC(N3CCCC3)C2C)OCO4)c(OC)c1 (configuration not stated) | > 100 µM
C=C1CN2CC(=C)CN(C1)CS(=O)(=O)N1CC(=C)CN(CC(=C)C1)S(=O)(=O)N1CC(=C)CN(CC(=C)C1)S(=O)(=O)C2 | > 100 µM
C=C(Cl)C(C)(Cl)CCC(Br)C(C)(C)Cl (configuration not stated) | 30.9 µM
COC(=O)C1CCCN1C(=O)C(Cc1cn(S(=O)(=O)c2ccc(C)cc2)cn1)NC(=O)OC(C)(C)C (configuration not stated) | > 100 µM
Nc1ccc(S2(c3ccc(N)cc3)C=C(c3ccccc3)C(c3ccccc3)=C2)cc1 | > 100 µM
O=C1C(=Cc2ccccc2O)N=C(c2ccccc2)N1n1c(-c2ccccc2)nc2ccccc2c1=O | > 100 µM
CC(=O)O[C@]12CCCCCC1C1(O)C(O)CCCC[C@H]12 (some centres not stated) | > 100 µM
COC(=O)C1=C(C)NC(C)=C(C(=O)OC)C1c1nc2sccn2c1[N+](=O)[O-] | > 100 µM
O=c1c(C(c2ccc(Cl)cc2)c2c(O)c3ccccc3n(-c3ccccc3)c2=O)c(O)c2ccccc2n1-c1ccccc1 | > 100 µM
CCNC(=O)Nc1cccc(NC(=O)NCC)n1 | > 100 µM

Test system: NCI-H23 lung
Experiment: NCI anticancer screen, dose series, 48 h

Compound | TGI
COc1ccc(C2OC(c3ccncc3)=NN2C)cc1OC (configuration not stated) | > 100 µM
COc1c(C(C)C)cc2c3c1OC(=O)[C@@]31CCCC(C)(C)C1CC2 (some centres not stated) | 89.9 µM
COc1ccc(N2C(=O)CSC2c2c[nH]c3ccccc23)cc1 (configuration not stated) | > 100 µM
COC1C=COC2(C)Oc3c(C)c(O)c4c(O)c(c(C5SCCS5)c(O)c4c3C2=O)NC(=O)C(C)=C/C=C\C(C)C2OC(C)(C)OC(C2C)C(C)C(OC(C)=O)C1C (configuration not stated) | 80.9 µM
OCc1ccc(C2CC(c3ccco3)=NN2c2ccccc2)o1 (configuration not stated) | > 100 µM
COc1ccc(C2COc3cc(O)c(O)cc3C2)cc1 (configuration not stated) | 159 µM
CCCCN=C(c1ccccc1)N1CCOCC1 | > 100 µM
CSc1ncnc2c1ncn2CCC#N | > 100 µM
CCOC(=O)c1ccc(C)c(N=NN(C)C)c1 | > 100 µM
CC1CCCC(CC(=O)O)(CC(=O)O)C1 (configuration not stated) | > 100 µM
COc1cc2c3c(c1OC)C1(C=CC(=O)C=C1)C[C@H]3N(C)CC2 | > 100 µM
CC(C)(Cl)C(Br)CCC(=CCCl)CBr (mixture of isomers) | 4.28 µM
O=NN(CCCl)C(=O)NC1CCC(O)CC1 (configuration not stated) | > 100 µM
Nc1[nH]nc2nc3ccc(C(F)(F)F)cc3nc12 | 57.2 µM
CCC(=O)ONC(=O)Cn1ccc([N+](=O)[O-])n1 | > 100 µM
Cc1ccc(O)c(-c2cscn2)c1 | > 100 µM
O=C(CN(c1ccccc1)c1ccccc1)n1nnc2ccccc21 | > 100 µM
COc1cc(OC)c(C2c3cc4c(cc3OC(N3CCCC3)C2C)OCO4)c(OC)c1 (configuration not stated) | 59.1 µM
Cc1ccc(S(=O)(=O)C(C#N)c2nc3ccccc3nc2-n2ccnc2)cc1 (configuration not stated) | > 100 µM
